Where two headings read alike, the source gives them in different places. Blank lines part the entries; values can stand above or below the molecule they belong to.
Experiments:
[1] = tested on: phospho-ERK in MIA PaCa2 or H358 cells; assay: Phospho-ERK assay (AlphaLisa); format: cell-based
SHP2 (full length) = target: T1, SHP2 (full length) (Homo sapiens, UniProt Q06124); assay: Phosphatase assay (PTPase assay) with DiFMUP substrate; format: biochemical; conditions: SHP2 activated with SHP2 activating peptide, DiFMUP 80 μM, 2 hours, fluorescence
T1 construct: SHP2 (full length, diluted to 100 pM final concentration in reaction buffer, BPS bioscience, US); purchased BPS bioscience, US
T1 sequence (Q06124 1-593): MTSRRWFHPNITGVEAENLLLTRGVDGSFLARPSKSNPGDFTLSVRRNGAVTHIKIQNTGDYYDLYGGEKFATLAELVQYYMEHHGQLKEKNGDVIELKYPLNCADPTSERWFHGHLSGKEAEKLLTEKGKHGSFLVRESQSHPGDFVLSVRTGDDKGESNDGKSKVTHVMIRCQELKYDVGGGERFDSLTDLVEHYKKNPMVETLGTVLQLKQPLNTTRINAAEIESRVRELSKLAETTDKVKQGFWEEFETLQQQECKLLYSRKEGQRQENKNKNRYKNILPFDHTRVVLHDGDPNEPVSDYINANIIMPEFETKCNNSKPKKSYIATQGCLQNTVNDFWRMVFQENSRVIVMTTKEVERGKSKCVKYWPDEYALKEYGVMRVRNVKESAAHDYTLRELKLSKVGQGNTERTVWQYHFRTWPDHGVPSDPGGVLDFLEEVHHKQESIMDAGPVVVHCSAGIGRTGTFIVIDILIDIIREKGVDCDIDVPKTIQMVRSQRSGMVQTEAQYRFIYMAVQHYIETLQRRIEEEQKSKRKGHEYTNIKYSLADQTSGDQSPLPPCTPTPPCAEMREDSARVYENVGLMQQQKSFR

[2] = 1.5 h, MIA PaCa2 or H358 cells, compound incubated 1.5 hours, read-out: IC50 (p-ERK)
[3] = MIA PaCa2 or H358 cells, compound incubated 1.5 hours, read-out: IC50 (p-ERK)

IC50 [1, 2]: 45 to 1500 nM | IC50 (SHP2 (full length); read-out: IC50 (PTPase aS say)): 3 to 100 nM
Compound: CC1(N)CCN(c2cnc(Sc3ccc4ncn(Cc5cccc([N+](=O)[O-])c5)c(=O)c4c3Cl)cn2)CC1 [Example 14, 6-((5-(4-amino-4-methylpiperidin-1-yl)pyrazin-2-yl)thio)-5-chloro-3-(3-nitrobenzyl)quinazolin-4(3H)-one]

IC50 [1, 2]: > 1500 nM | IC50 (SHP2 (full length); read-out: IC50 (PTPase aS say)): > 100 nM
Compound: Cn1c(N2CCC(C)(N)CC2)nc(N)c(Sc2ccc3nc[nH]c(=O)c3c2Cl)c1=O [Example 29, 6-((4-amino-2-(4-amino-4-methylpiperidin-1-yl)-1-methyl-6-oxo-1,6-dihydropyrimidin-5-yl)thio)-5-chloroquinazolin-4(3H)-one]

IC50 [1, 2]: < 45 nM | IC50 (SHP2 (full length); read-out: IC50 (PTPase aS say)): < 3 nM
Compound: COc1ccc(Cn2cnc3ccc(Sc4cnc(N5CCC6(CC5)CO[C@@H](C)[C@H]6N)cn4)c(Cl)c3c2=O)cc1 [Example 41, 6-((5-((3S,4S)-4-amino-3-methyl-2-oxa-8-azaspiro[4.5]decan-8-yl)pyrazin-2-yl)thio)-5-chloro-3-(4-methoxybenzyl)quinazolin-4(3H)-one]

IC50 [1, 2]: < 45 nM | IC50 (SHP2 (full length); read-out: IC50 (PTPase aS say)): < 3 nM
Compound: COc1ccc(Cn2cnc3ccc(Sc4cnc(N5CCC6(CC5)CO[C@@H](C)[C@H]6N)cn4)c(Cl)c3c2=O)c(F)c1 [Example 72, 6-((5-((3S,4S)-4-amino-3-methyl-2-oxa-8-azaspiro[4.5]decan-8-yl)pyrazin-2-yl)thio)-5-chloro-3-(2-fluoro-4-methoxybenzyl)quinazolin-4(3H)-one]

IC50 [1, 2]: < 45 nM | IC50 (SHP2 (full length); read-out: IC50 (PTPase aS say)): < 3 nM
Compound: COCCn1cnc2ccc(Sc3cnc(N4CCC5(CC4)Cc4ccc(OC)cc4[C@H]5N)cn3)c(Cl)c2c1=O [Example 158, 6-[5-[(1S)-1-amino-6-methoxy-spiro[indane-2,4′-piperidin]-1′-yl]pyrazin-2-yl]sulfanyl-5-chloro-3-(2-methoxyethyl)quinazolin-4-one]

IC50 [1, 2]: < 45 nM | IC50 (SHP2 (full length); read-out: IC50 (PTPase aS say)): < 3 nM
Compound: C[C@@H]1OCC2(CCN(c3cnc(Sc4ccc5ncn(CCCF)c(=O)c5c4Cl)cn3)CC2)[C@@H]1N [Example 77, 6-((5-((3S,4S)-4-amino-3-methyl-2-oxa-8-azaspiro[4.5]decan-8-yl)pyrazin-2-yl)thio)-5-chloro-3-(3-fluoropropyl)quinazolin-4(3H)-one]

IC50 [1, 2]: > 1500 nM | IC50 (SHP2 (full length); read-out: IC50 (PTPase aS say)): > 100 nM
Compound: Cn1c(N2CCN(CCN)CC2)nc(N)c(Sc2ccnc(Cl)c2Cl)c1=O [Example 193, 6-amino-2-(4-(2-aminoethyl)piperazin-1-yl)-5-((2,3-dichloropyridin-4-yl)thio)-3-methylpyrimidin-4(3H)-one]

IC50 [1, 2]: < 45 nM | IC50 (SHP2 (full length); read-out: IC50 (PTPase aS say)): < 3 nM
Compound: COCCn1cnc2ccc(Sc3cnc(N4CCC5(CC4)CO[C@@H](C)[C@H]5N)c(CO)n3)c(Cl)c2c1=O [Example 153, 6-[5-[(3S,4S)-4-amino-3-methyl-2-oxa-8-azaspiro[4.5]decan-8-yl]-6-(hydroxymethyl)pyrazin-2-yl]sulfanyl-5-chloro-3-(2-methoxyethyl)quinazolin-4-one]

IC50 [1, 2]: 45 to 1500 nM | IC50 (SHP2 (full length); read-out: IC50 (PTPase aS say)): 3 to 100 nM
Compound: CC1(N)CCN(c2cnc(Sc3ccc4ncn(-c5ccccc5)c(=O)c4c3Cl)cn2)CC1 [Example 28, 6-((5-(4-amino-4-methylpiperidin-1-yl)pyrazin-2-yl)thio)-5-chloro-3-phenylquinazolin-4(3H)-one]

IC50 [1, 2]: < 45 nM | IC50 (SHP2 (full length); read-out: IC50 (PTPase aS say)): < 3 nM
Compound: COCCn1cnc2ccc(Sc3cnc(N4CCC5(CC4)CO[C@@H](C)[C@H]5N)cn3)c(Cl)c2c1=O [Example 64, 6-((5-((3S,4S)-4-amino-3-methyl-2-oxa-8-azaspiro[4.5]decan-8-yl)pyrazin-2-yl)thio)-5-chloro-3-(2-methoxyethyl)quinazolin-4(3H)-one]

Further lines, the molecule ahead of its results:

Compound: C[C@@H]1OCC2(CCN(c3cnc(Sc4ccc5nc(OC6CCOC6)n(C)c5c4Cl)cn3)CC2)[C@@H]1N (stereo partly drawn) [Example 129, (3S,4S)-8-(5-((7-chloro-1-methyl-2-((tetrahydrofuran-3-yl)oxy)-1H-benzo[d]imidazol-6-yl)thio)pyrazin-2-yl)-3-methyl-2-oxa-8-azaspiro[4.5]decan-4-amine]
IC50 [1, 2]: < 45 nM | IC50 (SHP2 (full length); read-out: IC50 (PTPase aS say)): < 3 nM

Compound: Cn1c(N2CCN[C@H](CN)C2)nc(N)c(Sc2cccc(Cl)c2Cl)c1=O [Example 197, (R)-6-amino-2-(3-(aminomethyl)piperazin-1-yl)-5-((2,3-dichlorophenyl)thio)-3-methylpyrimidin-4(3H)-one]
IC50 [1, 3]: 45 to 1500 nM | IC50 (SHP2 (full length); read-out: IC50 (PTPase aS say)): 3 to 100 nM

Compound: C[C@@H]1OCC2(CCN(c3cnc(Sc4ccc5ncn(Cc6ccc(F)cc6)c(=O)c5c4Cl)cn3)CC2)[C@@H]1N [Example 40, 6-((5-((3S,4S)-4-amino-3-methyl-2-oxa-8-azaspiro[4.5]decan-8-yl)pyrazin-2-yl)thio)-5-chloro-3-(4-fluorobenzyl)quinazolin-4(3H)-one]
IC50 [1, 2]: 45 to 1500 nM | IC50 (SHP2 (full length); read-out: IC50 (PTPase aS say)): < 3 nM

Compound: C[C@@H]1OCC2(CCN(c3cnc(Sc4ccc5nc(OC6CCOC6)[nH]c5c4Cl)cn3)CC2)[C@@H]1N (stereo partly drawn) [Example 126, (3S,4S)-8-(5-((7-chloro-2-((tetrahydrofuran-3-yl)oxy)-1H-benzo[d]imidazol-6-yl)thio)pyrazin-2-yl)-3-methyl-2-oxa-8-azaspiro[4,5]decan-4-amine]
IC50 [1, 2]: 45 to 1500 nM | IC50 (SHP2 (full length); read-out: IC50 (PTPase aS say)): 3 to 100 nM

Compound: C[C@@H]1OCC2(CCN(c3cnc(Sc4ccc5ncn(Cc6cccnc6)c(=O)c5c4Cl)cn3)CC2)[C@@H]1N [Example 20, 6-((5-((3S,4S)-4-amino-3-methyl-2-oxa-8-azospiro[4.5]decan-8-yl)pyrazin-2-yl)thio)-5-chloro-3-(pyridin-3-ylmethyl)quinazolin-4H-one]
IC50 [1, 2]: < 45 nM | IC50 (SHP2 (full length); read-out: IC50 (PTPase aS say)): < 3 nM

Compound: C[C@@H]1OCC2(CCN(c3cnc(Sc4ccc5ncn(Cc6cccc(F)c6)c(=O)c5c4Cl)cn3)CC2)[C@@H]1N [Example 33, 6-((5-((3S,4S)-4-amino-3-methyl-2-oxa-8-azaspiro[4.5]decan-8-yl)pyrazin-2-yl)thio)-5-chloro-3-(3-fluorobenzyl)quinazolin-4(3H)-one]
IC50 [1, 2]: 45 to 1500 nM | IC50 (SHP2 (full length); read-out: IC50 (PTPase aS say)): < 3 nM

Compound: C[C@@H]1OCC2(CCN(c3cnc(Sc4ccc5ncn(Cc6nc7ccccc7o6)c(=O)c5c4Cl)cn3)CC2)[C@@H]1N [Example 47, 6-((5-((3S,4S)-4-amino-3-methyl-2-oxa-8-azaspiro[4.5]decan-8-yl)pyrazin-2-yl)thio)-3-(benzooxazol-2-ylmethyl)-5-chloroquinazolin-4(3H)-one]
IC50 [1, 2]: < 45 nM | IC50 (SHP2 (full length); read-out: IC50 (PTPase aS say)): < 3 nM

Compound: C[C@@H]1OCC2(CCN(c3cnc(Sc4ccc5ncn(CC6=CCOCC6)c(=O)c5c4Cl)cn3)CC2)[C@@H]1N [Example 117, 6-((5-(3S,4S)-4-amino-3-methyl-2-oxa-8-azaspiro[4,5]decan-8-yl)pyrazin-2-yl)thio)-5-chloro-(3-((3,6-dihydro-2H-pyran-4-yl)methyl)quinazolin-4(3H)-one]
IC50 [1, 2]: 45 to 1500 nM | IC50 (SHP2 (full length); read-out: IC50 (PTPase aS say)): 3 to 100 nM

Compound: C[C@@H]1OCC2(CCN(c3cnc(Sc4ccc5ncn(Cc6cccc(S(=O)(=O)F)c6)c(=O)c5c4Cl)cn3)CC2)[C@@H]1N [Example 19, 3-((6-((5-((3S,4S)-4-amino-3-methyl-2-oxa-8-azospiro[4.5]decan-8-yl)pyrazin-2-yl)thio)-5-chloro-4-oxoquinazolin-3(4H)-yl)methyl)benzenesulfonyl fluoride]
IC50 ([1]; 1.5 h, read-out: IC50 (p-ERK, nM)): 45 to 1500 nM | IC50 (SHP2 (full length); IC50 (PTPase aS say, nM)): < 3 nM

Compound: C[C@@H]1OCC2(CCN(c3cnc(Sc4ccc5nn(Cc6ccccc6)cc5c4Cl)cn3)CC2)[C@@H]1N [Example 49, (3S,4S)-8-(5-((2-benzyl-4-chloro-2H-indazol-5-yl)thio)pyrazin-2-yl)-3-methyl-2-oxa-8-azaspiro[4.5]decan-4-amine]
IC50 [1, 2]: > 1500 nM | IC50 (SHP2 (full length); read-out: IC50 (PTPase aS say)): 3 to 100 nM

Compound: C[C@@H]1OCC2(CCN(c3cnc(Sc4ccc5ncn(CC6(F)COC6)c(=O)c5c4Cl)cn3)CC2)[C@@H]1N [Example 80, 6-((5-((3S,4S)-4-amino-3-methyl-2-oxa-8-azaspiro[4.5]decan-8-yl)pyrazin-2-yl)thio)-5-chloro-3-((3-fluorooxetan-3-yl)methyl)quinazolin-4(3H)-one]
IC50 [1, 2]: < 45 nM | IC50 (SHP2 (full length); read-out: IC50 (PTPase aS say)): < 3 nM

Compound: C[C@@H]1OCC2(CCN(c3cnc(Sc4ccc5ncn(Cc6ccoc6)c(=O)c5c4Cl)cn3)CC2)[C@@H]1N [Example 119]
IC50 [1, 2]: < 45 nM | IC50 (SHP2 (full length); read-out: IC50 (PTPase aS say)): < 3 nM

Compound: COCCn1cnc2ccc(Sc3cnc(N4CCC5(CC4)Cc4ccccc4[C@H]5N)cn3)c(Cl)c2c1=O [Example 84, (S)-6-((5-(1-amino-1,3-dihydrospiro(indene-2,4′-piperidin]-1′-yl)pyrazin-2-yl)thio)-5-chloro-3-(2-methoxyethyl)quinazolin-4(3H)-one]
IC50 [1, 3]: < 45 nM | IC50 (SHP2 (full length); read-out: IC50 (PTPase aS say)): < 3 nM

Compound: C[C@@H]1OCC2(CCN(c3cnc(Sc4ccc5c(c4Cl)C(=O)N(Cc4ccccc4)CC5)cn3)CC2)[C@@H]1N [Example 85, 7-((5-((3S,4S)-4-amino-3-methyl-2-oxa-8-azaspiro[4.5]decan-8-yl)pyrazin-2-yl)thio)-2-benzyl-8-chloro-3,4-dihydroisoquinolin-1(2H)-one]
IC50 [1, 2]: > 1500 nM | IC50 (SHP2 (full length); read-out: IC50 (PTPase aS say)): 3 to 100 nM

Source: patent US12029739B2, “SHP2 inhibitor and use thereof” (KANAPH THERAPEUTICS INC., priority 2021, dated 2024)
